# In PMC9061999, “Application of the Adverse Outcome Pathway Concept to In Vitro Nephrotoxicity Assessment: Kidney Injury due to Receptor-Mediated Endocytosis and Lysosomal Overload as a Case Study” (Frontiers in Toxicology, 2022):
# Like-named read-outs stand apart in the source and are kept apart here.
# How the values were obtained:
# RPTEC/TERT1 cells [1] = type: cell-based, human
# Experimental: For high content imaging, NRK-52E and RPTEC/TERT1 cells were cultivated in µ-clear half well area microtiter plates (Greiner) according to the protocol described for the cytotoxicity assay with slight modification. Briefly, NRK-52E cells were seeded at 5,000 cells in 100 µL growth medium per well and were incubated under standard growth conditions for 48 h prior to treatment. RPTEC/TERT1 cells were seeded at 15,000 cells in 100 µL growth medium per well and incubated under standard growth conditions for 7–8 days, until cells reached confluence and started to differentiate. This was indicated by the formation of three-dimensional structures referred to as domes which were identified by regular microscopic inspection of the plates. Only differentiated cell cultures with detectable domes were assayed. Cells of both cell lines were treated with serially diluted Polymyxin B sulfate (concentration range 7.8 to 2,000 µM) for 1, 2, 4, 6, or up to 24 h. The assay was carried out on three biological replicates defined as three different non-consecutive passages of the cell culture. Each biological replicate at each treatment concentration was assayed in triplicate wells per plate.
# Following treatment, cells were stained with two different combinations of fluorescent dyes: NRK-52E cells with 50 pg/μL LysoView™ 633 (Biotium) and 1 µM SYTO 16 (Thermo Scientific), respectively, for lysosomes and nuclei; RPTEC/TERT1 cells with 10 nM LysoTracker™ Red (Thermo Scientific) and 10 ng/μL Hoechst 33342 (Merck-Sigma Aldrich), respectively, for lysosomes and nuclei. For each cell line a staining solution was obtained by mixing the lysosomes and nuclei dyes in cell culture medium at the concentrations indicated above. The cells were stained by replenishing the medium for 100 µL of staining solution per well followed by incubation at 37°C and 5% CO2 for 30 min before imaging.
# Images were acquired with a fully automated fluorescence confocal Opera™ QEHS system (PerkinElmer, United Kingdom) using a ×40 air UPlanApo objective (Olympus) with 0.85 numerical aperture. NRK-52E cells stained with the dyes SYTO 16 and LysoView™633 were imaged with the laser lines 488 and 635 nm, using a 488/561/635 nm primary dichroic mirror, a 510 nm long pass (LP) detection dichroic mirror, a 540/75 nm band pass (BP) emission filter for SYTO 16 and a 690/50 nm BP emission filter for LysoView™ 633. RPTEC/TERT1 cells stained with the dyes Hoechst 33342 and LysoTracker™Red were imaged with the laser lines 405 and 561 nm, using a 405/561/635 nm primary dichroic mirror, a 580 nm LP detection dichroic mirror, a 450/50 nm BP emission filter for Hoechst 33342 and a 600/40 nm BP emission filter for LysoTracker™Red. To prevent cross talk of the fluorescent signals, each dye was imaged consecutively using the combination of lasers and filters described above. The settings for laser power, exposure time and focal height were kept constant for each cell line across all the experiments. For NRK-52E cells images were acquired at 25 randomly distributed positions in a well at a single focal plane whereas for RPTEC/TERT1 cells due to the development of dome structures images were acquired at 9 random positions at three focal planes each 1 μm apart.
# The images were analyzed by custom-made image analysis scripts either with the imaging analysis software Acapella (version 2.8 PerkinElmer) or Columbus (version 2.4.0 PerkinElmer). The scripts included modules for the identification and counting of the cell nuclei to extrapolate the number of cells per well, for definition of a cytoplasm surrounding the nucleus, for identification and counting of the lysosome vesicles within the cytoplasm. Additional cellular parameters included the nuclei size, intensity, the cell size (cell area), the lysosome size (lysosome area), intensity and the number of lysosomes normalized by the cell area to compensate for difference in size of the cells.
# RPTEC/TERT1 cells [2] = assay: CellTiter-Glo cytotoxicity assay (KE3); type: cell-based, human; conditions: for BMC10, KE3: in vitro POD from KE dose-response, cell viability CellTiter-Glo, RPTEC/TERT1, 24 h treatment, n = 3; for MOE, KE3: margin of exposure: BMC10 in RPTEC/TERT1 vs human plasma/serum concentration (cmax or css)
# Experimental: Cells were plated into 96-well tissue culture plates (10,000 cells per well) and were allowed to grow for 48 h (NRK-52E) respectively 10 d (RPTEC/TERT1) prior to 24 h treatment with model stressors. Stock solution for each compound (2000 µM) was prepared in growth medium and serial dilutions (1:1) were made before each experiment. At the end of the 24 h treatment, cell viability was measured using the CellTiter-Glo® assay (Promega). CellTiter-Glo® reagents and buffer were mixed under light-protected conditions and 100 µL CellTiter-Glo® solution was added directly to each well followed by 2 min incubation on an orbital shaker and 10 min incubation at room temperature in the dark to stabilize the luminescence signal. The suspension was mixed via pipetting and 50 µL were transferred into white 96-well plates (PerkinElmer Inc.). The luminescence signal was measured on a multiplate reader (Mithras LB 940; Berthold). Each assay was performed in three independent experiments carried out in triplicates.
# [3] = RPTEC/TERT1, 250 µM, high content imaging
Substance,"Effect on lysosomal endpoints in high content screening (RPTEC/TERT1 cells [1]; RPTEC/TERT1, 24 h, 7.8 to 2000 µM (smaller range for CdCl2 and 4-aminophenol), triplicate experiments, Figure S1)","BMC10, KE3 (RPTEC/TERT1 cells [2])","MOE, KE3 (RPTEC/TERT1 cells [2])","Treatment time at which nuclear changes were first recorded (RPTEC/TERT1 cells [1]; RPTEC/TERT1, 125 µM, high content imaging (nuclei area, nuclei intensity))","Treatment time at which lysosomal effects were measurable (RPTEC/TERT1 cells [1]; RPTEC/TERT1, 125 µM, high content imaging, three biological replicates in triplicate wells)",Treatment time at which lysosomal effects were measurable (RPTEC/TERT1 cells [1]; [3]),Treatment time at which nuclear changes were first recorded (RPTEC/TERT1 cells [1]; [3]),"Cytotoxicity in high content screening (RPTEC/TERT1 cells [1]; RPTEC/TERT1, 24 h treatment, Figure S1)"
Colistin,most prominent effects on lysosomal endpoints,23.5 µM,2.9 – 56.0,,,,,
Polymyxin B,,14.2 µM,3.5 – 24.9,4 h,1 h,1 h,2 h,severe cytotoxicity
